Test results taken from US4132802A, “Benzoic acid derivative and benzenesulfonic acid mucolytic process” (Mead Johnson & Company, priority 1978, dated 1979).
Where “and” joins values, the source holds several entries; their conditions need not be identical. Equal entries are not always repeated. Where two headings read alike, the source gives them in different places.

Key:
[1] = Mucolytic activity: percent reduction in viscosity of sputum, cone-plate viscometer (method of Lieberman); design: species or system human; conditions: for Relative molar potency compared to N-acetyl-L-cysteine: on a molar basis, N-acetyl-L-cysteine = 1; for Mucolytic activity compared to N-acetyl-L-cysteine (in words): compared with N-acetyl-L-cysteine
Description: Mucolytic activity was determined using the method of J. Lieberman, Am. J. Resp. […] This is a viscometric method which employs a cone-plate viscometer (Brookfield Engineering Laboratories, Inc., Stoughton, Mass.). According to this method, a 2 ml. aliquot of a batch of purulent human sputum (obtained from bronchitic patients) is transferred to the center of the viscometer plate and the temperature is allowed to equilibrate. The plate is then rotated at gradually increasing speeds up to 100 r.p.m. during a 2-minute period. This reduces the amount of sputum on the test plate to 1 ml. and reduces the viscosity of the specimen to a reproducible value which is necessary because of the thixotropic properties of sputum. […] The test is repeated with N-acetyl-L-cysteine employing another aliquot of sputum to establish a control for comparison purposes. Relative molar potencies compared to N-acetyl-L-cysteine (NAC) can be determined by varying concentration of the test agent until approximately equivalent mucolytic activity is obtained.

[2] = Toxicity (LD50, TD50) in the mouse; conditions: in vivo
Excerpt: The substances of Formula I are relatively non-toxic substances substantially free of other pharmacologic action.

In the case of O=C(CS)Nc1ccc(C(=O)O)cc1 [Compound 1, 4-(2-MERCAPTOACETAMIDO)BENZOIC ACID], the “Percent reduction in viscosity” value ([1]; 0.005 Molar, 1 min, 5000 µM) is reported as 32%, the “Percent reduction in viscosity” value ([1]; 0.005 Molar, 3 min, 5000 µM) is reported as 50% and the “Percent reduction in viscosity” value ([1]; 0.005 Molar, 6 min, 5000 µM) is reported as 57%. The “Percent reduction in viscosity” value ([1]; 0.005 Molar, 9 min, 5000 µM) was 55%, the “Percent reduction in viscosity” value ([1]; 0.005 Molar, 12 min, 5000 µM) was 55% and the “Percent reduction in viscosity” value ([1]; 0.005 Molar, 15 min, 5000 µM) was 55%. For the same molecule, the “Percent reduction in viscosity” value ([1]; 0.01 Molar, 1 min, 10000 µM) was 45%, the “Percent reduction in viscosity” value ([1]; 0.01 Molar, 3 min, 10000 µM) was 63% and the “Percent reduction in viscosity” value ([1]; 0.01 Molar, 6 min, 10000 µM) was 69%. For the same molecule, the “Percent reduction in viscosity” value ([1]; 0.01 Molar, 9 min, 10000 µM) was 76%, the “Percent reduction in viscosity” value ([1]; 0.01 Molar, 12 min, 10000 µM) was 82% and the “Percent reduction in viscosity” value ([1]; 0.01 Molar, 15 min, 10000 µM) was 84%. The “Relative molar potency compared to N-acetyl-L-cysteine” value [1] was “approximately 12 times”, the LD50 ([2]; ip, intraperitoneally, read-out: LD50) was 1110 mg/kg and the TD50 ([2]; named in the same clause as the oral LD50, read-out: approximate TD50) was ~250 mg/kg. For the same molecule, the LD50 ([2]; oral, read-out: approximate LD50) was ~2000 mg/kg.

In the case of O=C(CS)Nc1cccc(C(=O)O)c1 [Compound 2, 3-(2-MERCAPTOACETAMIDO)BENZOIC ACID], the “Percent reduction in viscosity” value ([1]; 0.03 Molar, 1 min, 30000 µM) is reported as 44%, the “Percent reduction in viscosity” value ([1]; 0.03 Molar, 3 min, 30000 µM) is reported as 67% and the “Percent reduction in viscosity” value ([1]; 0.03 Molar, 6 min, 30000 µM) is reported as 81%. The “Percent reduction in viscosity” value ([1]; 0.03 Molar, 9 min, 30000 µM) was 89%, the “Percent reduction in viscosity” value ([1]; 0.03 Molar, 12 min, 30000 µM) was 91% and the “Percent reduction in viscosity” value ([1]; 0.03 Molar, 15 min, 30000 µM) was 93%. For the same molecule, the “Mucolytic activity compared to N-acetyl-L-cysteine (in words)” value [1] was “substantially more active than N-acetyl-L-cysteine”.

With O=C(CS)Nc1ccc(S(=O)(=O)O)cc1 [Compound 3, N-(2-MERCAPTOACETYL)SULFANILIC ACID] the “Percent reduction in viscosity” value ([1]; 0.005 Molar, 1 min, 5000 µM) was 34%, the “Percent reduction in viscosity” value ([1]; 0.005 Molar, 3 min, 5000 µM) was 47% and the “Percent reduction in viscosity” value ([1]; 0.005 Molar, 6 min, 5000 µM) was 50%. For the same molecule, the “Percent reduction in viscosity” value ([1]; 0.005 Molar, 9 min, 5000 µM) was 50%, the “Percent reduction in viscosity” value ([1]; 0.005 Molar, 12 min, 5000 µM) was 47% and the “Percent reduction in viscosity” value ([1]; 0.005 Molar, 15 min, 5000 µM) was 44%. For the same molecule, the “Percent reduction in viscosity” value ([1]; 0.01 Molar, 1 min, 10000 µM) was 46%, the “Percent reduction in viscosity” value ([1]; 0.01 Molar, 3 min, 10000 µM) was 64% and the “Percent reduction in viscosity” value ([1]; 0.01 Molar, 6 min, 10000 µM) was 66%. For the same molecule, the “Percent reduction in viscosity” value ([1]; 0.01 Molar, 9 min, 10000 µM) was 68%, the “Percent reduction in viscosity” value ([1]; 0.01 Molar, 12 min, 10000 µM) was 77% and the “Percent reduction in viscosity” value ([1]; 0.01 Molar, 15 min, 10000 µM) was 82%.

For O=C(CS)Nc1ccc(C(=O)NCCO)cc1 [Compound 4, N-(2-HYDROXYETHYL)-4-(2-MERCAPTOACETAMIDO)BENZAMIDE], the “Percent reduction in viscosity” value ([1]; 0.001 Molar, 1 min) was 25%, the “Percent reduction in viscosity” value ([1]; 0.001 Molar, 3 min, 1000 µM) was 32% and the “Percent reduction in viscosity” value ([1]; 0.001 Molar, 6 min, 1000 µM) was 36%. For the same molecule, the “Percent reduction in viscosity” value ([1]; 0.001 Molar, 9 min, 1000 µM) was 36%, the “Percent reduction in viscosity” value ([1]; 0.001 Molar, 12 min, 1000 µM) was 36% and the “Percent reduction in viscosity” value ([1]; 0.001 Molar, 15 min, 1000 µM) was 34%. The “Percent reduction in viscosity” value ([1]; 0.002 Molar, 1 min, 2000 µM) was 26%, the “Percent reduction in viscosity” value ([1]; 0.002 Molar, 3 min, 2000 µM) was 37% and the “Percent reduction in viscosity” value ([1]; 0.002 Molar, 6 min, 2000 µM) was 42%. For the same molecule, the “Percent reduction in viscosity” value ([1]; 0.002 Molar, 9 min, 2000 µM) was 44%, the “Percent reduction in viscosity” value ([1]; 0.002 Molar, 12 min, 2000 µM) was 44% and the “Percent reduction in viscosity” value ([1]; 0.002 Molar, 15 min, 2000 µM) was 42%. For the same molecule, the “Percent reduction in viscosity” value ([1]; 0.005 Molar, 1 min, 5000 µM) was 30%, the “Percent reduction in viscosity” value ([1]; 0.005 Molar, 3 min, 5000 µM) was 58% and the “Percent reduction in viscosity” value ([1]; 0.005 Molar, 6 min, 5000 µM) was 67%. For the same molecule, the “Percent reduction in viscosity” value ([1]; 0.005 Molar, 9 min, 5000 µM) was 75%, the “Percent reduction in viscosity” value ([1]; 0.005 Molar, 12 min, 5000 µM) was 82% and the “Percent reduction in viscosity” value ([1]; 0.005 Molar, 15 min, 5000 µM) was 82%. The “Relative molar potency compared to N-acetyl-L-cysteine” value [1] was “approximately 15 times”.

For CC(=O)SCC(=O)Nc1ccc(C(=O)O)cc1 [Compound 5, 4-[2-(ACETYLTHIO)ACETAMIDO]BENZOIC ACID], the “Percent reduction in viscosity” value ([1]; 0.03 Molar, 1 min, 30000 µM) was 34%, the “Percent reduction in viscosity” value ([1]; 0.03 Molar, 3 min, 30000 µM) was 42% and the “Percent reduction in viscosity” value ([1]; 0.03 Molar, 6 min, 30000 µM) was 54%. For the same molecule, the “Percent reduction in viscosity” value ([1]; 0.03 Molar, 9 min, 30000 µM) was 54%, the “Percent reduction in viscosity” value ([1]; 0.03 Molar, 12 min, 30000 µM) was 52% and the “Percent reduction in viscosity” value ([1]; 0.03 Molar, 15 min, 30000 µM) was 48%. The “Mucolytic activity compared to N-acetyl-L-cysteine (in words)” value [1] was “significantly more active than N-acetyl-L-cysteine”.

With CC(=O)N[C@@H](CS)C(=O)O [NAC, N-acetyl-L-cysteine, reference compound] the “Percent reduction in viscosity” value ([1]; 0.03 Molar, 1 min, 30000 µM) was 25% and 29% and 33%, the “Percent reduction in viscosity” value ([1]; 0.03 Molar, 3 min, 30000 µM) was 32% and 33% and 34% and the “Percent reduction in viscosity” value ([1]; 0.03 Molar, 6 min, 30000 µM) was 40% and 36%. For the same molecule, the “Percent reduction in viscosity” value ([1]; 0.03 Molar, 9 min, 30000 µM) was 42% and 40% and 34%, the “Percent reduction in viscosity” value ([1]; 0.03 Molar, 12 min, 30000 µM) was 42% and 43% and 34% and the “Percent reduction in viscosity” value ([1]; 0.03 Molar, 15 min, 30000 µM) was 40% and 34%. For the same molecule, the “Percent reduction in viscosity” value ([1]; 0.06 Molar, 1 min, 60000 µM) was 36%, the “Percent reduction in viscosity” value ([1]; 0.06 Molar, 3 min, 60000 µM) was 45% and the “Percent reduction in viscosity” value ([1]; 0.06 Molar, 6 min, 60000 µM) was 52%. The “Percent reduction in viscosity” value ([1]; 0.06 Molar, 9 min, 60000 µM) was 50%, the “Percent reduction in viscosity” value ([1]; 0.06 Molar, 12 min, 60000 µM) was 52% and the “Percent reduction in viscosity” value ([1]; 0.06 Molar, 15 min, 60000 µM) was 60%.
